Results published in the NIST ThermoML archive (doi:10.1021/acs.jced.6b00048).
± gives the expanded uncertainty stated by the source.

Test: wn = mass fraction of the nth substance listed
Conditions: 100 kPa, Liquid, Vibrating tube method, w1 = 0.5821

mass density (288.15 K): 1702.7 ± 6.9 kg/m3
mass density (298.15 K): 1692.5 ± 6.9 kg/m3
mass density (323.15 K): 1666.6 ± 6.7 kg/m3
SMILES: [Cl-].[Cl-].[Zn+2] [zinc chloride] + O
